Experiments:
SK-MEL-28 [1] = experiment: Cytotoxicity against human SK-MEL-28 cells assessed as cell viability at 10 uM incubated for 48 hrs by sulforhodamine B assay relative to control; format: functional; details: read-out: Activity
EKVX = experiment: Cytotoxicity against human EKVX cells assessed as cell viability at 10 uM incubated for 48 hrs by sulforhodamine B assay relative to control; format: functional; details: read-out: Activity
OVCAR-3 = experiment: Cytotoxicity against human OVCAR-3 cells assessed as cell viability at 10 uM incubated for 48 hrs by sulforhodamine B assay relative to control; format: functional; details: read-out: Activity
HOP-92 = experiment: Cytotoxicity against human HOP-92 cells assessed as cell viability at 10 uM incubated for 48 hrs by sulforhodamine B assay relative to control; format: functional; details: read-out: Activity
CAKI-1 = experiment: Cytotoxicity against human CAKI-1 cells assessed as cell viability at 10 uM incubated for 48 hrs by sulforhodamine B assay relative to control; format: functional; details: read-out: Activity
MOLT-4 = experiment: Cytotoxicity against human MOLT-4 cells assessed as cell viability at 10 uM incubated for 48 hrs by sulforhodamine B assay relative to control; format: functional; details: read-out: Activity
LOX IMVI = experiment: Cytotoxicity against human LOX IMVI cells assessed as cell viability at 10 uM incubated for 48 hrs by sulforhodamine B assay relative to control; format: functional; details: read-out: Activity
OVCAR-4 = experiment: Cytotoxicity against human OVCAR-4 cells assessed as cell viability at 10 uM incubated for 48 hrs by sulforhodamine B assay relative to control; format: functional; details: read-out: Activity
RXF 393 = experiment: Cytotoxicity against human RXF 393 cells assessed as cell viability at 10 uM incubated for 48 hrs by sulforhodamine B assay relative to control; format: functional; details: read-out: Activity
MCF7 = experiment: Cytotoxicity against human MCF7 cells assessed as cell viability at 10 uM incubated for 48 hrs by sulforhodamine B assay relative to control; format: functional; details: read-out: Activity
KM12 = experiment: Cytotoxicity against human KM12 cells assessed as cell viability at 10 uM incubated for 48 hrs by sulforhodamine B assay relative to control; format: functional; details: read-out: Activity
HOP-62 = experiment: Cytotoxicity against human HOP-62 cells assessed as cell viability at 10 uM incubated for 48 hrs by sulforhodamine B assay relative to control; format: functional; details: read-out: Activity
HCT-116 = experiment: Cytotoxicity against human HCT-116 cells assessed as cell viability at 10 uM incubated for 48 hrs by sulforhodamine B assay relative to control; format: functional; details: read-out: Activity
HCT-29 = experiment: Cytotoxicity against human […] cells assessed as cell viability at 10 uM incubated for 48 hrs by sulforhodamine B assay relative to control; format: functional; details: read-out: Activity
NCI-H522 = experiment: Cytotoxicity against human NCI-H522 cells assessed as cell viability at 10 uM incubated for 48 hrs by sulforhodamine B assay relative to control; format: functional; details: read-out: Activity
SN12C = experiment: Cytotoxicity against human SN12C cells assessed as cell viability at 10 uM incubated for 48 hrs by sulforhodamine B assay relative to control; format: functional; details: read-out: Activity
PC-3 = experiment: Cytotoxicity against human PC-3 cells assessed as cell viability at 10 uM incubated for 48 hrs by sulforhodamine B assay relative to control; format: functional; details: read-out: Activity
UACC-62 = experiment: Cytotoxicity against human UACC-62 cells assessed as cell viability at 10 uM incubated for 48 hrs by sulforhodamine B assay relative to control; format: functional; details: read-out: Activity
SNB-19 = experiment: Cytotoxicity against human SNB-19 cells assessed as cell viability at 10 uM incubated for 48 hrs by sulforhodamine B assay relative to control; format: functional; details: read-out: Activity
A-375 = experiment: Cytotoxicity against human A-375 cells assessed as reduction in cell viability by MTT assay; format: functional, cell-based
SK-MEL-28 [2] = experiment: Cytotoxicity against human SK-MEL-28 cells assessed as reduction in cell viability by MTT assay; format: functional, cell-based

Compound | viability at 10 µM (SK-MEL-28 [1]) | viability at 10 µM (EKVX) | viability at 10 µM (OVCAR-3) | viability at 10 µM (HOP-92) | viability at 10 µM (CAKI-1) | viability at 10 µM (MOLT-4) | viability at 10 µM (LOX IMVI) | viability at 10 µM (OVCAR-4) | viability at 10 µM (RXF 393) | viability at 10 µM (MCF7) | viability at 10 µM (KM12) | viability at 10 µM (HOP-62) | viability at 10 µM (HCT-116) | viability at 10 µM (HCT-29) | viability at 10 µM (NCI-H522) | viability at 10 µM (SN12C) | viability at 10 µM (PC-3) | viability at 10 µM (UACC-62) | viability at 10 µM (SNB-19) | IC50 (A-375) | other results
O=C(NCCCNc1nccc(-c2c(-c3cccc(F)c3)nc3sccn23)n1)c1ccc(C(F)(F)F)cc1 | 96.2% | 72.2% | 82.3% | 93.6% | 62.5% | 44.8% | 82.6% | 74.7% | 74.6% | 69.7% | 85.4% | 124% | 66.7% | 53.8% | 90.3% | 80.1% | 70.8% | 69.6% | 87.6% |  | 
O=S(=O)(NCCNc1nccc(-c2c(-c3cccc(F)c3)nc3sccn23)n1)c1cccc2ccccc12 | 123% | 93.9% | 103% | 91.2% | 77.5% | 73.7% | 95.7% | 105% | 102% | 74.6% | 85% | 110% | 84.6% | 83.2% | 95.5% | 97.1% | 80.2% | 91.8% | 96.2% |  | 
O=S(=O)(NCCNc1nccc(-c2c(-c3cccc(F)c3)nc3sccn23)n1)c1ccc(Br)cc1 | 69.1% | 59.5% | 62.4% | 76.7% | 35.1% | 35.7% | 38.5% | 47% | 72.7% | 23.5% | 42.5% | 83.3% | 33.9% | 28.2% | 62.6% | 42.9% | 51% | 35.8% | 59.3% | 13.5 µM | IC50 (SK-MEL-28 [2]): 13.5 µM
O=S(=O)(NCCNc1nccc(-c2c(-c3cccc(F)c3)nc3sccn23)n1)c1ccc(Cl)cc1 | 74.7% | 66.3% | 65.4% | 76.6% | 41.1% | 46.8% | 43.6% | 63.6% | 69% | 24.7% | 47.7% | 82.6% | 34% | 36% | 68.2% | 48.7% | 56.9% | 44.3% | 66.5% | 18.6 µM | IC50 (SK-MEL-28 [2]): 18.6 µM
O=C(NCCCNc1nccc(-c2c(-c3cccc(F)c3)nc3sccn23)n1)c1ccc(F)cc1 | 106% | 82% | 74.1% | 111% | 73% | 44.5% | 79.5% | 81.6% | 77.3% | 71.9% | 89% | 119% | 62.5% | 60.8% | 85.2% | 75.8% | 76.2% | 67.8% | 89% | 14.9 µM | IC50 (SK-MEL-28 [2]): > 20 µM
O=S(=O)(NCCCNc1nccc(-c2c(-c3cccc(F)c3)nc3sccn23)n1)c1cccc2ccccc12 | 77.5% | 56.1% | 68.7% | 94.6% | 29.1% | 29.3% | 20.9% | 40.1% | 62.9% | 37.4% | 26% | 80.7% | 32.4% | 1.97% | 56.3% | 46.9% | 41.2% | 24.3% | 69% |  | 
O=S(=O)(NCCNc1nccc(-c2c(-c3cccc(F)c3)nc3sccn23)n1)c1cccc(F)c1 | 94.7% | 72.1% | 76.7% | 88.2% | 44.6% | 57.8% | 51.2% | 64.8% | 80.2% | 30.8% | 44.2% | 83.5% | 42.8% | 43.9% | 75.8% | 55.3% | 67.2% | 56.2% | 73% | 14.9 µM | IC50 (SK-MEL-28 [2]): 18.3 µM
O=C(NCCNc1nccc(-c2c(-c3cccc(F)c3)nc3sccn23)n1)c1ccc(C(F)(F)F)cc1 | 82.1% | 69.1% | 76.5% | 86.7% | 55% | 50% | 64.8% | 81.8% | 81.9% | 46.3% | 75.1% | 89.9% | 50.6% | 50.2% | 65.7% | 66.6% | 61% | 26.4% | 86.8% | 8.71 µM | IC50 (SK-MEL-28 [2]): 9.26 µM
O=S(=O)(NCCNc1nccc(-c2c(-c3cccc(F)c3)nc3sccn23)n1)c1ccc(F)cc1 | 81.1% | 62.7% | 67.2% | 84.8% | 41.3% | 41.1% | 42.8% | 59.3% | 68.9% | 22% | 40.1% | 80.1% | 40% | 28.7% | 67% | 49.2% | 51.4% | 44.4% | 67.4% | 9.45 µM | IC50 (SK-MEL-28 [2]): 9.45 µM
O=C(NCCNc1nccc(-c2c(-c3cccc(F)c3)nc3sccn23)n1)C1CCCCC1 | 106% | 80.4% | 76.3% | 135% | 70.4% | 55.4% | 65.9% | 71.8% | 78.2% | 82% | 81.6% | 109% | 51.9% | 43.6% | 79.3% | 67.5% | 75.2% | 58.4% | 96% |  | 
O=S(=O)(NCCCNc1nccc(-c2c(-c3cccc(F)c3)nc3sccn23)n1)c1ccc(O)cc1 | 95.9% | 78.8% | 80.5% | 98.1% | 51.9% | 55.5% | 61.2% | 82.4% | 84% | 32.2% | 27.4% | 89% | 60% | 41.8% | 85% | 58.7% | 75% | 60.1% | 77.7% |  | 
O=C(NCCCNc1nccc(-c2c(-c3cccc(F)c3)nc3sccn23)n1)C1CCCCC1 | 84.5% | 80.8% | 82.1% | 105% | 55.7% | 69.5% | 57.4% | 85.9% | 94.3% | 36.5% | 84.5% | 98.2% | 49.3% | 40.1% | 77.6% | 67.3% | 73.9% | 36.4% | 89.8% |  | 

— ChEMBL document CHEMBL4665642, “Anticancer profile of newly synthesized BRAF inhibitors possess 5-(pyrimidin-4-yl)imidazo[2,1-b]thiazole scaffold” (Bioorg Med Chem, 2019)
